Reference: EP0626016B1, “[…] […]” (BRITISH TECHNOLOGY GROUP LIMITED, priority 1992, dated 1993)
Blank lines part the entries; values can stand above or below the compound they belong to.

Key:
[1] = target: T1, HRP (Armoracia rusticana, UniProt P00433); test: CPA as enhancer of the luminol-H2O2-HRP reaction, Amerlite microplate reader (Example 9); type: biochemical, horseradish
T1 construct: purchased Sigma Chemical Co
T1 sequence (P00433 31-338): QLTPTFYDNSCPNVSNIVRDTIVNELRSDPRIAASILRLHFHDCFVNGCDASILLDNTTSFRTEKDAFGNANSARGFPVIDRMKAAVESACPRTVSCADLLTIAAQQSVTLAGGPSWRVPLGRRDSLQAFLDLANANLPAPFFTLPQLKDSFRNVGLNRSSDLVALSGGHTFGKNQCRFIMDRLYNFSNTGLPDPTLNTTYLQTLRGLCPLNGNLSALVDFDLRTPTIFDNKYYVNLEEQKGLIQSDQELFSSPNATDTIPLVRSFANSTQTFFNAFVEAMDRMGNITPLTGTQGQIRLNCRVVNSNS
Experimental: (§1) PBBA was added in various concentrations (range 0.05µg to 0.5µg) to a luminol-H2O2 reaction in the presence and absence of HRP. The luminol-hydrogen peroxide reagent was prepared as follows: sodium luminol (12.5mg) was dissolved in 50ml of Tris buffer (0.1mol/l, pH 8.6), and 15.5µl of hydrogen peroxide (30% w/v) was mixed with 0.5ml of Tris buffer (0.lmol/l, pH 8.6). These two solutions were combined and protected from light. The luminol-hydrogen peroxide reagent (100µl of a 1:10 dilution) was added to a cuvette together with either 10µl of HRP Type VI A (HRP, Sigma Chemical Co., 1:50,000 dilution) or as a control 10µl of Tris Buffer (0.1mol/l, pH 8.6), and various amounts of PBBA (Aldrich Chemical Co.), range 0.05µg-0.5µg in 0.1mol/l Tris, pH 8.6). The reagents were mixed and the light emission recorded after 5 minutes on a Berthold Biolumat LB9500C.
The experiment of Example 1 was repeated using CPA in place of PBBA. Various dilutions of CPA (Cookson Chemicals Ltd., Southampton, UK, […] in 1 mg/ml Tris buffer, pH 8.6) were used. […] "Amerlite" is a Registered Trade Mark.

[2] = target: T2, horseradish peroxidase Type VIA (Armoracia rusticana, UniProt P00433); test: Enhanced chemiluminescent assay for peroxide with 4-biphenylboronic acid (Example 8a); type: biochemical; details: 10µl enhancer (1:20 dilution of 1mg/ml)
T2 construct: purchased Sigma Chemical Co
T2 sequence (P00433 31-338): T1 sequence (P00433 31-338)
Experimental: The assay reagent consisted of the following reagents: 10µl 4-biphenylboronic acid (1:20 dilution of a 1mg/ml stock in DMSO), 10µl horseradish peroxidase (1:500,000 dilution of a 1mg/ml stock Type VIA in 0.1 mol/l Tris buffer pH 8.6) and 100µl luminol (0.025 g/l in 0.1 mol/l Tris buffer pH 8.6). These were mixed together and the light emission measured. A 10µl sample of a hydrogen peroxide solution (dilutions of a stock, 31µl 30% w/v hydrogen peroxide/ml in Tris buffer) was added, the contents of the assay tube mixed and the light emission recorded.
From Table 9 it can be seen that there was a dose-dependent increase in light output up to 2.4µmoles of peroxide.

[3] = target: T2, horseradish peroxidase Type VIA; test: Enhanced chemiluminescent assay for luminol with 4-biphenylboronic acid (Example 8b); type: biochemical; details: 10µl enhancer (1:20 dilution of 1mg/ml)
Experimental: The assay reagent consisted of the following reagents: 10µl 4-biphenylboronic acid (1:20 dilution of a 1mg/ml stock in DMSO), 10µl horseradish peroxidase (1:500,000 dilution of a lmg/ml stock Type VIA in 0.1 mol/l Tris buffer pH 8.6) and 100µl hydrogen peroxide solution (31µl 30% w/v hydrogen peroxide diluted in 100ml Tris buffer). These were mixed together and the light emission measured. A 10µl sample of a luminol solution (dilutions of a 0.25g/l in 0.1 mol/l Tris buffer pH 8.6 stock) was added, the contents of the assay tube mixed and the light emission recorded.
From Table 10 it can be seen that there was a dose-dependent increase in light output at all concentrations of luminol tested.

[4] = target: T3, HRP Type VIA (Armoracia rusticana, UniProt P00433)
T3 sequence (P00433 31-338): T1 sequence (P00433 31-338)

[5] = target: T3, HRP Type VIA; test: Effect of organoboron compounds on the luminol-hydrogen peroxide-HRP chemiluminescent reaction (Example 2); type: biochemical, horseradish; design: purchased Sigma Chemical Co; details: test
Experimental: The stock solution of HRP Type VIA (1mg/ml) and luminol-hydrogen peroxide reagent were prepared as described previously. Luminol-hydrogen peroxide (100µl, 1:10 dilution) was mixed with either 10µl of HRP (1:50,000 dilution) or, 10µl of Tris buffer (0.1mol/l, pH 8.6). […] A control without any test compound was run in parallel.
The control consisted of buffer in place of the compound under test as an enhancer. […]

[6] = target: T1, HRP; test: PIBA enhancement of the HRP-luminol-peroxide reaction (Example 7); type: biochemical, horseradish; details: for Signal: Background ratio: at 1 minute
Experimental: as §1, with “The reagents were mixed and the light emission recorded after 5 minutes on a Berthold Biolumat LB9500C.” left out
The experiment of Example 1 was repeated using PIBA in place of PBBA. Various dilutions of PIBA (Cookson Chemicals Ltd., Southampton, UK, 1mg/ml stock in DMSO) in Tris buffer were used. […]

Compound: O=C(O)C=Cc1ccc(B(O)O)cc1 [CPA, 4-(2-carboxyethenyl)phenylboronic acid]
Signal (no HRP) ([1]; CPA 0.01 µg): 0.094
Signal (with HRP) ([1]; CPA 0.01 µg): 0.41
Signal: Background ratio ([1]; CPA 0.01 µg): 4.4
Signal (no HRP) ([1]; CPA 0.02 µg): 0.09
Signal (with HRP) ([1]; CPA 0.02 µg): 0.46
Signal: Background ratio ([1]; CPA 0.02 µg): 5.1
Signal (no HRP) ([1]; CPA 0.05 µg): 0.09
Signal (with HRP) ([1]; CPA 0.05 µg): 0.68
Signal: Background ratio ([1]; CPA 0.05 µg): 7.6
Signal (no HRP) ([1]; CPA 0.1 µg): 0.09
Signal (with HRP) ([1]; CPA 0.1 µg): 1.23
Signal: Background ratio ([1]; CPA 0.1 µg): 14.2
Signal (no HRP) ([1]; CPA 0.2 µg): 0.08
Signal (with HRP) ([1]; CPA 0.2 µg): 2.37
Signal: Background ratio ([1]; CPA 0.2 µg): 28.2
Signal (no HRP) ([1]; CPA 0.5 µg): 0.07
Signal (with HRP) ([1]; CPA 0.5 µg): 4.57
Signal: Background ratio ([1]; CPA 0.5 µg): 63.4
Signal (no HRP) ([1]; CPA 1.0 µg): 0.06
Signal (with HRP) ([1]; CPA 1.0 µg): 5.58
Signal: Background ratio ([1]; CPA 1.0 µg): 93.0
Signal (no HRP) ([1]; CPA 10 µg): 0.02
Signal (with HRP) ([1]; CPA 10 µg): 2.49
Signal: Background ratio ([1]; CPA 10 µg): 124.9
Signal (no HRP) ([1]; CPA 20 µg): 0.003
Signal (with HRP) ([1]; CPA 20 µg): 0.88
Signal: Background ratio ([1]; CPA 20 µg): 43.9

Compound: OB(O)c1ccc(-c2ccccc2)cc1 [Compound 1011, 4-biphenylboronic acid]
Light emission at 5 minutes ([2]; Hydrogen peroxide 0 µmoles): 525
Light emission at 5 minutes ([2]; Hydrogen peroxide 0.00024 µmoles): 659
Light emission at 5 minutes ([2]; Hydrogen peroxide 0.0024 µmoles): 1,500
Light emission at 5 minutes ([2]; Hydrogen peroxide 0.024 µmoles): 40,682
Light emission at 5 minutes ([2]; Hydrogen peroxide 0.24 µmoles): 584,638
Light emission at 5 minutes ([2]; Hydrogen peroxide 2.4 µmoles): 620,551
Light emission at 5 minutes ([2]; Hydrogen peroxide 24 µmoles): 339,291
Light emission at 10 minutes ([3]; Luminol 0 µmoles): 54
Light emission at 10 minutes ([3]; Luminol 0.00125 µmoles): 145
Light emission at 10 minutes ([3]; Luminol 0.0125 µmoles): 620
Light emission at 10 minutes ([3]; Luminol 0.125 µmoles): 5,161
Light emission at 10 minutes ([3]; Luminol 1.25 µmoles): 55,873
Light emission at 10 minutes ([3]; Luminol 12.5 µmoles): 358,184
Light emission at 10 minutes ([3]; Luminol 125 µmoles): 834,089
(a) Decrease in background (without HRP with test cpd.) [4]: Y
(b) Increase in signal (with HRP, with test cpd.) [4]: Y
(c) Increase in signal: background ratio [4]: Y (key: Column (c) shows whether there was an increase in the signal:background ratio by over 25% of the control value (Y = yes; N = no)

Compound: OB(O)c1ccccc1 [Compound 5004, phenylboronic acid]
Signal (no HRP) ([5]; 5µl of 1mg/ml compound): 5,601
Signal (with HRP) ([5]; 5µl of 1mg/ml compound): 54,554
Signal: Background ratio ([5]; 5µl of 1mg/ml compound): 9.7

Compound: butaneborinic acid [Compound 5005]
Signal (no HRP) ([5]; 40µl of 1mg/ml compound): 54,389
Signal (with HRP) ([5]; 40µl of 1mg/ml compound): 65,197
Signal: Background ratio ([5]; 40µl of 1mg/ml compound): 1.2

The remaining lines, values ahead:

Signal (no HRP) ([5]; 5µl of 1mg/ml compound): 16,246
Signal (with HRP) ([5]; 5µl of 1mg/ml compound): 128,274
Signal: Background ratio ([5]; 5µl of 1mg/ml compound): 7.9
Compound: OB(O)c1ccc(Cl)cc1Cl [Compound 5002, 2,4-dichlorophenylboronic acid]

Light emission at 1 minute, Background ([6]; PIBA 0.01 µg): 12,862
Light emission at 1 minute, Signal ([6]; PIBA 0.01 µg): 78,419
Signal: Background ratio ([6]; PIBA 0.01 µg): 6.1
Light emission at 1 minute, Background ([6]; PIBA 0.1 µg): 13,221
Light emission at 1 minute, Signal ([6]; PIBA 0.1 µg): 74,487
Signal: Background ratio ([6]; PIBA 0.1 µg): 7.1
Light emission at 1 minute, Background ([6]; PIBA 1 µg): 10,282
Light emission at 1 minute, Signal ([6]; PIBA 1 µg): 324,312
Signal: Background ratio ([6]; PIBA 1 µg): 31.5
Light emission at 1 minute, Background ([6]; PIBA 10 µg): 5,517
Light emission at 1 minute, Signal ([6]; PIBA 10 µg): 540,760
Signal: Background ratio ([6]; PIBA 10 µg): 98
Light emission at 1 minute, Background ([6]; PIBA 20 µg): 3,837
Light emission at 1 minute, Signal ([6]; PIBA 20 µg): 135,065
Signal: Background ratio ([6]; PIBA 20 µg): 35.2
Compound: OB(O)c1ccc(I)cc1 [PIBA, para-iodophenylboronic acid]
